# Laboratory results taken from ChEMBL document CHEMBL1123664, “Preparation and antitumor activity of new mitomycin A analogues” (J Med Chem, 1987).
# “And” between values parts separate entries of the source, which are not always exact repeats. Equal entries are not always repeated.
# Experiments:
# [1] = Partition coefficient (logP); assay type: physicochemical; settings: octanol/water
# P388 [2] = experiment: Antitumor activity against intraperitoneally implanted P388 leukemia cells in mice expressed as ratio of median survival time for treated group to that of control group at an optimal dose of 3.2 mg/kg; assay type: functional, Mus musculus; settings: route intraperitoneal
# P388 [3] = experiment: Antitumor activity against intraperitoneally implanted P388 leukemia cells in mice expressed as […] effective dose at an optimal dose of 3.2 mg/kg; assay type: functional; settings: Mus musculus, P388, ip, route intraperitoneal, read-out: MED
# B16 [4] = experiment: Antitumor activity against subcutaneously B16 melanoma cells in mice expressed as ratio of median survival time for treated group to that of control group at an optimal dose of 0.8 mg/kg; assay type: functional, Mus musculus; settings: route subcutaneous
# B16 [5] = experiment: Antitumor activity against subcutaneously B16 melanoma cells in mice at an optimal dose of 0.8 mg/kg expressed as […] effective dose; assay type: functional, Mus musculus; settings: route subcutaneous; for minimal effective dose at 0.8 mg/kg: Mus musculus, B16, sc, read-out: MED
# P388 [6] = experiment: Antitumor activity against intraperitoneally implanted P388 leukemia cells in mice expressed as ratio of median survival time for treated group to that of control group at an optimal dose of 0.8 mg/kg; assay type: functional, Mus musculus; settings: route intraperitoneal
# P388 [7] = experiment: Antitumor activity against intraperitoneally implanted P388 leukemia cells in mice at an optimal dose of 0.8 mg/kg expressed as […] effective dose; assay type: functional; settings: Mus musculus, P388, ip, route intraperitoneal, read-out: MED
# P388 [8] = experiment: Antitumor activity against intraperitoneally implanted P388 leukemia cells in mice expressed as ratio of median survival time for treated group to that of control group at an optimal dose 0.8 mg/kg; assay type: functional, Mus musculus; settings: route intraperitoneal
# P388 [9] = experiment: Antitumor activity against intraperitoneally implanted P388 leukemia cells in mice at an optimal dose 0.8 mg/kg expressed as […] effective dose; assay type: functional; settings: Mus musculus, P388, ip, route intraperitoneal, read-out: MED
# P388 [10] = experiment: Antitumor activity against intraperitoneally implanted P388 leukemia cells in mice at an optimal dose of 3.2 mg/kg expressed as […] effective dose; assay type: functional; settings: Mus musculus, P388, ip, route intraperitoneal, read-out: MED
# P388 [11] = experiment: Antitumor activity against intraperitoneally implanted P388 leukemia cells in mice expressed as ratio of median survival time for treated group to that of control group at an optimal dose of 1.6 mg/kg; assay type: functional, Mus musculus; settings: route intraperitoneal
# P388 [12] = experiment: Antitumor activity against intraperitoneally implanted P388 leukemia cells in mice at an optimal dose of 1.6 mg/kg expressed as […] effective dose; assay type: functional; settings: Mus musculus, P388, ip, route intraperitoneal, read-out: MED
# B16 [13] = experiment: Antitumor activity against subcutaneously B16 melanoma cells in mice expressed as […] effective dose at an optimal dose of 0.8 mg/kg; assay type: functional; settings: Mus musculus, B16, sc, route subcutaneous, read-out: MED
# P388 [14] = experiment: Antitumor activity against intraperitoneally implanted P388 leukemia cells in mice expressed as ratio of median survival time for treated group to that of control group at an optimal dose of 0.4 mg/kg; assay type: functional, Mus musculus; settings: route intraperitoneal
# P388 [15] = experiment: Antitumor activity against intraperitoneally implanted P388 leukemia cells in mice at an optimal dose of 0.4 mg/kg expressed as […] effective dose; assay type: functional, Mus musculus; settings: route intraperitoneal; for minimal effective dose at 0.4 mg/kg: Mus musculus, P388, ip, read-out: MED
# P388 [16] = experiment: Antitumor activity against intraperitoneally implanted P388 leukemia cells in mice expressed as ratio of median survival time for treated group to that of control group at an optimal dose of 6.4 mg/kg; assay type: functional, Mus musculus; settings: route intraperitoneal
# P388 [17] = experiment: Antitumor activity against intraperitoneally implanted P388 leukemia cells in mice at an optimal dose of 6.4 mg/kg expressed as […] effective dose; assay type: functional; settings: Mus musculus, P388, ip, route intraperitoneal, read-out: MED
# B16 [18] = experiment: (§1) Antitumor activity against subcutaneously B16 melanoma cells in mice expressed as ratio of median survival time for treated group to that of control group at an optimal dose of 1-3 mg/kg; assay type: functional, Mus musculus
# B16 [19] = experiment: Antitumor activity against subcutaneously B16 melanoma cells in mice expressed as ratio of median survival time for treated group to that of control group at an optimal dose of 1.6 mg/kg; assay type: functional, Mus musculus; settings: route subcutaneous
# B16 [20] = experiment: Antitumor activity against subcutaneously B16 melanoma cells in mice at an optimal dose of 1.6 mg/kg expressed as […] effective dose; assay type: functional; settings: Mus musculus, B16, sc, route subcutaneous, read-out: MED
# B16 [21] = experiment: Antitumor activity against subcutaneously B16 melanoma cells in mice expressed as ratio of median survival time for treated group to that of control group at an optimal dose of 0.4 mg/kg; assay type: functional, Mus musculus; settings: route subcutaneous
# B16 [22] = experiment: Antitumor activity against subcutaneously B16 melanoma cells in mice at an optimal dose of 0.4 mg/kg expressed as […] effective dose; assay type: functional; settings: Mus musculus, B16, sc, route subcutaneous, read-out: MED
# B16 [23] = experiment: as §1; assay type: functional, Mus musculus; remark: listed apart in the source
# P388 [24] = experiment: Antitumor activity against intraperitoneally implanted P388 leukemia cells in mice expressed as ratio of median survival time for treated group to that of control group at an optimal dose of 0.2 mg/kg; assay type: functional, Mus musculus; settings: route intraperitoneal
# P388 [25] = experiment: Antitumor activity against intraperitoneally implanted P388 leukemia cells in mice at an optimal dose of 0.2 mg/kg expressed as […] effective dose; assay type: functional; settings: Mus musculus, P388, ip, route intraperitoneal, read-out: MED
# P388 [26] = experiment: Antitumor activity against intraperitoneally implanted P388 leukemia cells in mice expressed as ratio of median survival time for treated group to that of control group given in equally divided doses on days 1,4 and 7; assay type: functional, Mus musculus
smiles,measurement,setting,value
CO[C@@]12C(COC(N)=O)C3=C(C(=O)C(C)=C(OCc4ccccc4)C3=O)N1CC1NC12 (stereo not given in full),logP,[1],2.22
same,T/C,P388 [2],167%
same,minimal effective dose at 3.2 mg/kg,P388 [3],< 0.2 mg/kg
COCCOCCOC1=C(C)C(=O)C2=C(C1=O)C(COC(N)=O)[C@@]1(OC)C3NC3CN21 (stereo not given in full),logP,[1],0.32
same,T/C,B16 [4]; 0.8 mg/kg,>191% and >265%
same,minimal effective dose at 0.8 mg/kg,B16 [5],0.4 mg/kg
same,MED,B16 [5],0.4 mg/kg
same,T/C,P388 [6],225%
same,minimal effective dose at 0.8 mg/kg,P388 [7],< 0.1 mg/kg
CO[C@@]12C(COC(N)=O)C3=C(C(=O)C(C)=C(OCC4CCCCO4)C3=O)N1CC1NC12 (stereo not given in full),logP,[1],1.79
same,T/C,P388 [8],161%
same,minimal effective dose at 0.8 mg/kg,P388 [9],0.1 mg/kg
CO[C@@]12C(COC(N)=O)C3=C(C(=O)C(C)=C(OCCCCl)C3=O)N1CC1NC12 (stereo not given in full),logP,[1],1.65
same,T/C,P388 [2],150%
same,minimal effective dose at 3.2 mg/kg,P388 [10],0.2 mg/kg
CO[C@@]12C(COC(N)=O)C3=C(C(=O)C(C)=C(OCCCO)C3=O)N1CC1NC12 (stereo not given in full),logP,[1],0.14
same,T/C,P388 [11],175%
same,minimal effective dose at 1.6 mg/kg,P388 [12],0.05 mg/kg
CO[C@@]12C(COC(N)=O)C3=C(C(=O)C(C)=C(OCCOCCO)C3=O)N1CC1NC12 (stereo not given in full),T/C,B16 [4],>265%
same,minimal effective dose at 0.8 mg/kg,B16 [13],0.4 mg/kg
same,T/C,P388 [14],210%
same,minimal effective dose at 0.4 mg/kg,P388 [15],0.1 mg/kg
CO[C@@]12C(COC(N)=O)C3=C(C(=O)C(C)=C(OCc4ccco4)C3=O)N1CC1NC12 (stereo not given in full),logP,[1],1.6
same,T/C,P388 [16],139%
same,minimal effective dose at 6.4 mg/kg,P388 [17],6.4 mg/kg
CO[C@@]12C(COC(N)=O)C3=C(C(=O)C(C)=C(OC4CCOC4)C3=O)N1CC1NC12 (stereo not given in full),logP,[1],0.79
same,T/C,B16 [18],135%
same,T/C,B16 [19],198%
same,minimal effective dose at 1.6 mg/kg,B16 [20],1.6 mg/kg
same,T/C,P388 [2],178%
same,minimal effective dose at 3.2 mg/kg,P388 [10],< 0.05 mg/kg
CCOCCOCCOC1=C(C)C(=O)C2=C(C1=O)C(COC(N)=O)[C@@]1(OC)C3NC3CN21 (stereo not given in full),logP,[1],0.82
same,T/C,B16 [21],196%
same,minimal effective dose at 0.4 mg/kg,B16 [22],0.2 mg/kg
same,T/C,P388 [11],167%
same,minimal effective dose at 1.6 mg/kg,P388 [12],< 0.1 mg/kg
CO[C@@]12C(COC(N)=O)C3=C(C(=O)C(C)=C(OCCSSCCO)C3=O)N1CC1NC12 (stereo not given in full),logP,[1],1.35
same,T/C,B16 [4],243%
same,T/C,B16 [23],136%
same,minimal effective dose at 0.8 mg/kg,B16 [5],0.2 mg/kg
same,T/C,P388 [11],259%
CO[C@@]12C(COC(N)=O)C3=C(C(=O)C(C)=C(OCCO)C3=O)N1CC1NC12 (stereo not given in full),T/C,B16 [21],178%
same,minimal effective dose at 0.4 mg/kg,B16 [22],0.2 mg/kg
same,T/C,P388 [24],217%
same,T/C,P388 [14]; 0.4 mg/kg,178% and >328%
same,minimal effective dose at 0.2 mg/kg,P388 [25],< 0.1 mg/kg
same,minimal effective dose at 0.4 mg/kg,P388 [15],0.0063 mg/kg
same,MED,P388 [15],6.3 µg/kg
same,T/C,P388 [26],194%
CO[C@@]12C(COC(N)=O)C3=C(C(=O)C(C)=C(OCCSCCO)C3=O)N1CC1NC12 (stereo not given in full),logP,[1],1.07
same,T/C,P388 [6],250%
same,minimal effective dose at 0.8 mg/kg,P388 [7],< 0.1 mg/kg
CO[C@@]12C(COC(N)=O)C3=C(C(=O)C(C)=C(OCC4CCC4)C3=O)N1CC1NC12 (stereo not given in full),logP,[1],2.26
same,T/C,P388 [11],144%
same,minimal effective dose at 1.6 mg/kg,P388 [12],0.4 mg/kg
